# System: RMG-I TPO-Luc reporter, SteadyGlo luminescence, 24 h
# Assay: PAX8 transcriptional activity inhibition in RMG-I – RMG-I cells, luciferase, cherry-pick, dose response (AID 687027);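 also: potency for lowering reporter light which is read as Pax8 inhibition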
smiles,measurement,value
COC(C(=O)C(O)C(C)O)C1Cc2cc3cc(OC4CC(OC5CC(O)C(O)C(C)O5)C(O)C(C)O4)c(C)c(O)c3c(O)c2C(=O)C1OC1CC(OC2CC(OC3CC(O)C(OC)C(C)O3)C(O)C(C)O2)C(O)C(C)O1 (stereo unspecified),AC50,< 260 nM

# Source: PubChem BioAssay AID687027 (Broad Institute, 2013)
